Results on eleven compounds are retold here after US20250340574A1, “MODULATORS OF CYSTIC FIBROSIS TRANSMEMBRANE CONDUCTANCE REGULATOR” (Vertex Pharmaceuticals Incorporated, priority 2022, published 2025).

Structures are written as SMILES. “And” between values parts separate entries of the source, which are not always exact repeats. Identical values can stand only once. Like-named read-outs stand apart in the source and are kept apart here.

Data set [1] concerns the target T1, CFTR (F508del/MF-HBE cells) (Homo sapiens, UniProt P13569, DEL508-508).
T1 construct: human bronchial epithelial (HBE) cells derived from CF subjects heterozygous for F508del and a minimal function CFTR mutation (F508del/MF-HBE); endogenous in cells; host or cells: Primary human bronchial epithelial cells from CF subjects (F508del/MF genotype), differentiated at an air-liquid interface
In words: Ussing chamber assay of CFTR-mediated short-circuit currents, Assay D (single concentration of 1 μM). The class given is cell-based. Particulars: with 44 nM potentiator and 18 μM Tezacaftor, 20% human serum; for D activity at 1 μM (%): 18-24 hours. An outline of the steps:
(§1)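 F508del/MF-HBE cells were preincubated 18–24 h at 37 °C in 20% human serum with corrector plus 18 μM tezacaftor and either 33 nM (concentration series) or 44 nM (1 μM single point) of the aminotrifluoromethyl triazatricyclic potentiator. Ussing chamber, Vhold=0 mV, 37 °C; forskolin 20 μM stimulation, CFTR ISC taken as inhibitor-cocktail-sensitive current.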

For data set [2] the following is noted: amide bond, 13-membered ring, CDMT/NMM, DMF.
Data set [3] has as its target T1, CFTR (F508del/MF-HBE cells). Briefly: Ussing chamber assay of CFTR-mediated short-circuit currents, Assay C (0.026 μM to 25 μM, 6 concentrations). Format: cell-based. To be noted: with 33 nM potentiator and 18 μM Tezacaftor, 20% human serum; for Emax: read-out: C Max activity (%). An outline of the steps: as §1
The target is the same in data set [4]. Briefly: Ussing chamber assay of CFTR-mediated short-circuit currents, Assay A (0.1 μM to 25 μM, 6 concentrations). Format: cell-based. To be noted: with 33 nM potentiator and 18 μM Tezacaftor, 20% human serum; for Emax: 18-24 hours, read-out: A Max activity (%). An outline of the steps: as §1

T1 sequence (P13569 with tags, fused parts or gaps DEL508-508): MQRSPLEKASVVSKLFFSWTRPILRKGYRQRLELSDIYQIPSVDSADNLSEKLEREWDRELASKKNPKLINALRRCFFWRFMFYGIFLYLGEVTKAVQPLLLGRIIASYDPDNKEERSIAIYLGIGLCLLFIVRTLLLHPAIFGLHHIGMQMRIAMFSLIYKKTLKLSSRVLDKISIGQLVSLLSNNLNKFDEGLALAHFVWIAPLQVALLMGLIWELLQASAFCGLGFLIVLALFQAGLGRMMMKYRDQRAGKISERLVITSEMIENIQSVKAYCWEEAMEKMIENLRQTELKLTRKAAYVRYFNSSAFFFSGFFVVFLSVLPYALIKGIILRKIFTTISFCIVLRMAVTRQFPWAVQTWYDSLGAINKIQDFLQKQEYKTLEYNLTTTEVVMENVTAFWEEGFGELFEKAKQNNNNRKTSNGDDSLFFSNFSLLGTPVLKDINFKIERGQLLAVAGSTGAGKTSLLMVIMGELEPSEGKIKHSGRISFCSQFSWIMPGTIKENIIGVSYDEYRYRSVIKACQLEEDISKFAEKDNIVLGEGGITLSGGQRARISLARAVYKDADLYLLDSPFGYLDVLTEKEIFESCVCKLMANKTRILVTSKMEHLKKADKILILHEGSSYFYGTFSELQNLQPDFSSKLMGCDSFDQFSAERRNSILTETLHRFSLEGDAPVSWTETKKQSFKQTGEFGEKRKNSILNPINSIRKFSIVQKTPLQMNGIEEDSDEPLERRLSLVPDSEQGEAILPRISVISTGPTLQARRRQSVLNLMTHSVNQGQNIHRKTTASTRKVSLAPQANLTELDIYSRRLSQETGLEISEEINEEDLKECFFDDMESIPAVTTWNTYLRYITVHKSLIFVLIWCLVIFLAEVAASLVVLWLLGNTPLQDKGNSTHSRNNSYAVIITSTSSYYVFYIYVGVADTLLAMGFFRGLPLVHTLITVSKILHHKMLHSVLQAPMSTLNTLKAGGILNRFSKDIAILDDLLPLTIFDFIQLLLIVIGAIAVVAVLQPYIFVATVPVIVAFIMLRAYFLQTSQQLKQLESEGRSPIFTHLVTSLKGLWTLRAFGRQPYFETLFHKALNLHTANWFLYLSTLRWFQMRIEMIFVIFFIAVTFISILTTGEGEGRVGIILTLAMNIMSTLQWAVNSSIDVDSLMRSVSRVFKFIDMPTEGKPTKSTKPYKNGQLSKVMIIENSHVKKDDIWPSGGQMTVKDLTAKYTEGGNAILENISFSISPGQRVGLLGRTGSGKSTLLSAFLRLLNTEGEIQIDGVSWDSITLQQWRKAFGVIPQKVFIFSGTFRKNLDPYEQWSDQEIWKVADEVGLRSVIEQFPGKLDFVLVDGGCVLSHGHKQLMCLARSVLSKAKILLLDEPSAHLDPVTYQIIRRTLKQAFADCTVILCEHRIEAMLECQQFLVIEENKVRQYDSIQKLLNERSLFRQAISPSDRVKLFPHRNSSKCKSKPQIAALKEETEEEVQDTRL

What is called EC50 is the concentration that produces a half-maximal response. On to `CCC(CC)[C@@H]1COc2cc(-c3c(C)cccc3C)nc(n2)NS(=O)(=O)c2cccc(c2)C(=O)N1Cc1cnc2oc(C(C)(C)C)cc2n1` [IV-48, (11R)-12-[(6-tert-butylfuro[2,3-b]pyrazin-2-yl)methyl]-6-(2,6-dimethylphenyl)-11-(1-ethylpropyl)-2,2-dioxo-9-oxa-2λ^6-thia-3,5,12,19-tetrazatricyclo[12.3.1.14,8]nonadeca-1(18),4,6,8(19),14,16-hexaen-13-one], for which the “D act. at 1 μM (%)” value in data set [1] is recorded as “+++ (+++ is >60%)”. For the same compound, the ring closure, yield after HPLC in data set [2] (from CCC(CC)[C@H](COc1cc(-c2c(C)cccc2C)nc(NS(=O)(=O)c2cccc(C(=O)O)c2)n1)NCc1cnc2oc(C(C)(C)C)cc2n1, 11.1 mM, 25.0 °C, 18.0 h) came out at 52%. Also, in data set [3], the EC50 was in the range of 1000 to 3000 nM and the Emax is above 60%.
For `Cc1cccc(C)c1-c1cc2nc(n1)NS(=O)(=O)c1cccc(c1)C(=O)N(Cc1cnc3oc(C)c(C4CC4)c3n1)[C@H](COC(C)C)CO2` [Compound I-26, (11R)-12-[(7-cyclopropyl-6-methyl-furo[2,3-b]pyrazin-2-yl)methyl]-6-(2,6-dimethylphenyl)-11-(isopropoxymethyl)-2,2-dioxo-9-oxa-2λ^6-thia-3,5,12,19-tetrazatricyclo[12.3.1.14,8]nonadeca-1(18),4(19),5,7,14,16-hexaen-13-one], in data set [4], the Emax is above 60% and the EC50 was below 1000 nM. The compound further showed a ring closure, yield after HPLC in data set [2] (from Cc1cccc(C)c1-c1cc(OC[C@@H](COC(C)C)NCc2cnc3oc(C)c(C4CC4)c3n2)nc(NS(=O)(=O)c2cccc(C(=O)O)c2)n1, 12.8 mM, 16.5 h) of 61%.
`Cc1cccc(COC(C)C)c1-c1nc2nc(c1C)OC[C@@H](CC(C)(C)C)N(Cc1cnc3oc(C(C)(C)C)cc3n1)C(=O)c1cccc(c1)S(=O)(=O)N2` (single isomer, unassigned) [IV-40]: the “D act. at 1 μM (%)” value in data set [1] is given as “+++ (+++ is >60%)”. Further, the ring closure, yield after HPLC in data set [2] (from Cc1cccc(COC(C)C)c1-c1nc(NS(=O)(=O)c2cccc(C(=O)O)c2)nc(OC[C@@H](CC(C)(C)C)NCc2cnc3oc(C(C)(C)C)cc3n2)c1C, 15.1 mM, 25.0 °C, 60.0 h) came to 23%. Also, in data set [3], the EC50 was below 1000 nM and the Emax was above 60%.
`Cc1cccc(C)c1-c1cc2nc(n1)NS(=O)(=O)c1cccc(c1)C(=O)N(Cc1ncc3cc(C(C)(C)C)n(C)c3n1)[C@H](CC13CC(C1)C3)CO2` [IV-35, (11R)-11-(1-bicyclo[1.1.1]pentanylmethyl)-12-[(6-tert-butyl-7-methyl-pyrrolo[2,3-d]pyrimidin-2-yl)methyl]-6-(2,6-dimethylphenyl)-2,2-dioxo-9-oxa-2λ^6-thia-3,5,12,19-tetrazatricyclo[12.3.1.14,8]nonadeca-1(18),4(19),5,7,14,16-hexaen-13-one]: the “D act. at 1 μM (%)” value in data set [1] is “+++ (+++ is >60%)”. This compound displayed a ring closure, yield after HPLC in data set [2] (from Cc1cccc(C)c1-c1cc(OC[C@@H](CC23CC(C2)C3)NCc2ncc3cc(C(C)(C)C)n(C)c3n2)nc(NS(=O)(=O)c2cccc(C(=O)O)c2)n1, 9.95 mM, 25.0 °C, 16.5 h) of 27%. Moreover, in data set [3], the EC50 was below 1000 nM and the Emax was above 60%.
Consider `CCc1c2nc(nc1-c1c(C)cccc1C)NS(=O)(=O)c1cccc(c1)C(=O)N(Cc1cnc3cc(C(C)(C)C)n(C)c3n1)[C@H](COC(C)C)CO2` [IV-4, (11R)-12-[(6-tert-butyl-5-methyl-pyrrolo[2,3-b]pyrazin-3-yl)methyl]-6-(2,6-dimethylphenyl)-7-ethyl-11-(isopropoxymethyl)-2,2-dioxo-9-oxa-2λ^6-thia-3,5,12,19-tetrazatricyclo[12.3.1.14,8]nonadeca-1(17),4(19),5,7,14(18),15-hexaen-13-one], for which the “D act. at 1 μM (%)” value in data set [1] was “+++ (+++ is >60%)”. The compound further gave a ring closure, yield after HPLC in data set [2] (from CCc1c(OC[C@@H](COC(C)C)NCc2cnc3cc(C(C)(C)C)n(C)c3n2)nc(NS(=O)(=O)c2cccc(C(=O)O)c2)nc1-c1c(C)cccc1C, 10.0 mM, 25.0 °C, 3.5 h) of 20%. Moreover, in data set [3], the EC50 is below 1000 nM and the Emax was above 60%.
With `Cc1cccc(C)c1-c1cc2nc(n1)NS(=O)(=O)c1cccc(c1)C(=O)N(Cc1cnc3cc(C(C)(C)C)n(C)c3n1)[C@H](CC1(C)CC1)CO2` [Compound I-187, (11R)-12-[(6-tert-Butyl-5-methyl-pyrrolo[2,3-b]pyrazin-3-yl)methyl]-6-(2,6-dimethylphenyl)-11-[(1-methylcyclopropyl)methyl]-2,2-dioxo-9-oxa-2λ^6-thia-3,5,12,19-tetrazatricyclo[12.3.1.14,8]nonadeca-1(18),4(19),5,7,14,16-hexaen-13-one], the “D activity at 1 μM (%)” value in data set [1] is reported as “+++ (+++ is >60%)”. The ring closure, yield after HPLC in data set [2] (from Cc1cccc(C)c1-c1cc(OC[C@@H](CC2(C)CC2)NCc2cnc3cc(C(C)(C)C)n(C)c3n2)nc(NS(=O)(=O)c2cccc(C(=O)O)c2)n1, 22.5 mM, 4.0 h) worked out at 41%. Further, the Emax in data set [3] (18-24 hours) was above 60%. The EC50 in data set [3] was below 1000 nM.
With `Cc1cccc(C)c1-c1cc2nc(n1)NS(=O)(=O)c1cccc(c1)C(=O)N(Cc1cnc3cc(C4(C)CC4)n(C)c3n1)[C@H](CC13CC(C1)C3)CO2` [Compound I-227, (11R)-11-(1-Bicyclo[1.1.1]pentanylmethyl)-6-(2,6-dimethylphenyl)-12-[[5-methyl-6-(1-methylcyclopropyl)pyrrolo[2,3-b]pyrazin-3-yl]methyl]-2,2-dioxo-9-oxa-2λ^6-thia-3,5,12,19-tetrazatricyclo[12.3.1.14,8]nonadeca-1(18),4(19),5,7,14,16-hexaen-13-one], the “D activity at 1 μM (%)” value in data set [1] is “+++ (+++ is >60%)”. Also, the ring closure, yield after HPLC in data set [2] (from Cc1cccc(C)c1-c1cc(OC[C@@H](CC23CC(C2)C3)NCc2cnc3cc(C4(C)CC4)n(C)c3n2)nc(NS(=O)(=O)c2cccc(C(=O)O)c2)n1, 25.0 °C) stood at 66%. Moreover, the Emax in data set [3] (18-24 hours) is above 60%. Also, in data set [3], the EC50 is below 1000 nM.
Take `Cc1cccc(C)c1-c1cc2nc(n1)NS(=O)(=O)c1cccc(c1)C(=O)N(Cc1cnc3oc(C(C)C)cc3n1)[C@H](CCC1(C)CCC1)CO2` [Compound I-13, (11R)-6-(2,6-dimethylphenyl)-12-[(6-isopropylfuro[2,3-b]pyrazin-2-yl)methyl]-11-[2-(1-methylcyclobutyl)ethyl]-2,2-dioxo-9-oxa-2λ^6-thia-3,5,12,19-tetrazatricyclo[12.3.1.14,8]nonadeca-1(18),4(19),5,7,14,16-hexaen-13-one]: in data set [4], the Emax is above 60% and the EC50 is below 1000 nM. The ring closure, yield after HPLC in data set [2] (from Cc1cccc(C)c1-c1cc(OC[C@@H](CCC2(C)CCC2)NCc2cnc3oc(C(C)C)cc3n2)nc(NS(=O)(=O)c2cccc(C(=O)O)c2)n1, 13.5 mM, 16.5 h) was 37%.
Consider `Cc1cccc(C)c1-c1cc2nc(n1)NS(=O)(=O)c1cccc(c1)C(=O)N(Cc1cnc3oc(C4CC4)cc3n1)[C@H](C=C1CCC1)CO2` [Compound I-154, (11R)-11-(cyclobutylidenemethyl)-12-[(6-cyclopropylfuro[2,3-b]pyrazin-2-yl)methyl]-6-(2,6-dimethylphenyl)-2,2-dioxo-9-oxa-2λ^6-thia-3,5,12,19-tetrazatricyclo[12.3.1.14,8]nonadeca-1(18),4(19),5,7,14,16-hexaen-13-one], for which the “D activity at 1 μM (%)” value in data set [1] was “+++ (+++ is >60%)”. This compound returned a ring closure, yield after HPLC in data set [2] (from Cc1cccc(C)c1-c1cc(OC[C@@H](C=C2CCC2)NCc2cnc3oc(C4CC4)cc3n2)nc(NS(=O)(=O)c2cccc(C(=O)O)c2)n1, 25.1 mM, 2.08 h) of 14%.
Regarding `Cc1cccc(C)c1-c1cc2nc(n1)NS(=O)(=O)c1cccc(c1)C(=O)N(Cc1cnc3oc(C(C)C)cc3n1)[C@H](CC1CCCOC1)CO2` (single isomer, unassigned) [Compound I-66], the “D activity at 1 μM (%)” value in data set [1] is “+++ (+++ is >60%)”. In addition, in data set [2] (from Cc1cccc(C)c1-c1cc(OC[C@@H](CC2CCCOC2)NCc2cnc3oc(C(C)C)cc3n2)nc(NS(=O)(=O)c2cccc(C(=O)O)c2)n1, 11.8 mM, 72.5 h), the ring closure, yield after HPLC is 17% and 20%.
For `COc1c2nc(nc1-c1c(C)cccc1C)NS(=O)(=O)c1cccc(c1)C(=O)N(Cc1cnc3oc(C(C)C)cc3n1)[C@H](CC(C)(C)C)CC2` [Compound I-157, (11S)-6-(2,6-Dimethylphenyl)-11-(2,2-dimethylpropyl)-12-[(6-isopropylfuro[2,3-b]pyrazin-2-yl)methyl]-7-methoxy-2,2-dioxo-2λ^6-thia-3,5,12,19-tetrazatricyclo[12.3.1.14,8]nonadeca-1(18),4(19),5,7,14,16-hexaen-13-one], in data set [1], the “D activity at 1 μM (%)” value is given as “+++ (+++ is >60%)”. In data set [2] (from COc1c(CC[C@@H](CC(C)(C)C)NCc2cnc3oc(C(C)C)cc3n2)nc(NS(=O)(=O)c2cccc(C(=O)O)c2)nc1-c1c(C)cccc1C, 11.0 mM, 3.5 h), this compound registered a ring closure, yield after HPLC of 62%.
